Assay results reported in US10160747B2, “Compounds and methods for kinase modulation, and indications therefor” (Plexxikon Inc., priority 2016, dated 2018).

Molecular target: T1, BA/F3-FLT3-ITD + D835Y (Homo sapiens, UniProt P36888, D835Y, cells depend on it, form not given)
T1 sequence (P36888 with tags, fused parts or gaps INS600HVDFREYEYD/D835Y): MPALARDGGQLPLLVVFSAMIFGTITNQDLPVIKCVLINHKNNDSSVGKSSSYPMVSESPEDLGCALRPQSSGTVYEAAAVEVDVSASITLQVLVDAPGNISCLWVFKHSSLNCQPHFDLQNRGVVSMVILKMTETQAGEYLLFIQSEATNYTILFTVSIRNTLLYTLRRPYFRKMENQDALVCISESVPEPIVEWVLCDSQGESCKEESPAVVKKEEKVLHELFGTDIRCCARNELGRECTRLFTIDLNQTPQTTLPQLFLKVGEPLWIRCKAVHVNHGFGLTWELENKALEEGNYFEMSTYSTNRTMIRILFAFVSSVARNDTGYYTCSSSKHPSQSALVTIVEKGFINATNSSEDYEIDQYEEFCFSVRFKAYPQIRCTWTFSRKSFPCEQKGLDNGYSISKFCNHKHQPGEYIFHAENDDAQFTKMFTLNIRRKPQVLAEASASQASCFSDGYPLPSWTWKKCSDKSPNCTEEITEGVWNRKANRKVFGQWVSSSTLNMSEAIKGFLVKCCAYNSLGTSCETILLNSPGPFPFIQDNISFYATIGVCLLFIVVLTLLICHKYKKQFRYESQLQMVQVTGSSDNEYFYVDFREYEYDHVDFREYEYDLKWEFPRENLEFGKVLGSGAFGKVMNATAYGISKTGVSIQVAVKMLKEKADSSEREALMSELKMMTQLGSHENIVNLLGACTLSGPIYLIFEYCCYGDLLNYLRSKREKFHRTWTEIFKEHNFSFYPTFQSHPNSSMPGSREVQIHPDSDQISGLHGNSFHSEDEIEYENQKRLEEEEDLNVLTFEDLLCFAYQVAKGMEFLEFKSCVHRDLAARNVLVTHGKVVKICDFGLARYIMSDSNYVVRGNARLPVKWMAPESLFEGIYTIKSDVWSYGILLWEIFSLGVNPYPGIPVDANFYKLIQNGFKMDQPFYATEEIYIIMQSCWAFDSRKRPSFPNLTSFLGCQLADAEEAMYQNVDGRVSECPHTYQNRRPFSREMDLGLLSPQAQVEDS
Assay: Engineered BA/F3 cell growth assay, FLT3 ITD/D835Y
Type: cell-based, murine
Details: 3 d growth
In short: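 IC50 derived from CellTiter-Glo ATP luminescence after 3 days at 37 °C, 5% CO2, over eight 1:3 dilutions from 1 μM (0.2% DMSO final). Cells: IL-3-independent murine Ba/F3 expressing full-length FLT3 ITD/D835Y, 1×10^4 per well.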

GI50, 0.0001 to 10 µM:
CCn1cc(Nc2ncc(-c3ccc(CC(=O)Nc4cncc(C(F)(F)F)c4)c(F)c3)cn2)cn1 [Compound P-0258, 2-[4-[2-[(1-ethylpyrazol-4-yl)amino]pyrimidin-5-yl]-2-fluoro-phenyl]-N-[5-(trifluoromethyl)-3-pyridyl]acetamide]
CCn1cc(Nc2ncc(-c3ccc(CC(=O)Nc4cnc(OC)c(C(F)(F)F)c4)c(F)c3)cn2)cn1 [Compound P-0259, 2-[4-[2-[(1-ethylpyrazol-4-yl)amino]pyrimidin-5-yl]-2-fluoro-phenyl]-N-[6-methoxy-5-(trifluoromethyl)-3-pyridyl]acetamide]
CCn1cc(Nc2ncc(-c3ccc(CC(=O)Nc4cnc(Cl)c(C(F)(F)F)c4)c(F)c3)cn2)cn1 [Compound P-0260, N-[6-chloro-5-(trifluoromethyl)-3-pyridyl]-2-[4-[2-[(1-ethylpyrazol-4-yl)amino]pyrimidin-5-yl]-2-fluoro-phenyl]acetamide]
CCn1cc(Nc2ncc(-c3ccc(CC(=O)Nc4cnc(C)c(C(F)(F)F)c4)c(F)c3)cn2)cn1 [Compound P-0261, 2-[4-[2-[(1-ethylpyrazol-4-yl)amino]pyrimidin-5-yl]-2-fluoro-phenyl]-N-[6-methyl-5-(trifluoromethyl)-3-pyridyl]acetamide]
COc1ncc(NC(=O)Cc2ccc(-c3cnc4[nH]nc(C5CC5)c4c3)cc2F)cc1C(F)(F)F [Compound P-0262, 2-[4-(3-cyclopropyl-1H-pyrazolo[3,4-b]pyridin-5-yl)-2-fluoro-phenyl]-N-[6-methoxy-5-(trifluoromethyl)-3-pyridyl]acetamide]
COc1ncc(NC(=O)Cc2ccc(-c3cnc4[nH]nc(C5CC5)c4c3)cc2)cc1C(F)(F)F [Compound P-0263, 2-[4-(3-cyclopropyl-1H-pyrazolo[3,4-b]pyridin-5-yl)phenyl]-N-[6-methoxy-5-(trifluoromethyl)-3-pyridyl]acetamide]
COCCn1cc(Nc2ncc(-c3ccc(CC(=O)Nc4cnc(OC)c(C(F)(F)F)c4)c(F)c3)cn2)cn1 [Compound P-0265, 2-[2-fluoro-4-[2-[[1-(2-methoxyethyl)pyrazol-4-yl]amino]pyrimidin-5-yl]phenyl]-N-[6-methoxy-5-(trifluoromethyl)-3-pyridyl]acetamide]
COCCn1cc(Nc2ncc(-c3ccc(CC(=O)Nc4cnc(Cl)c(C(F)(F)F)c4)c(F)c3)cn2)cn1 [Compound P-0266, N-[6-chloro-5-(trifluoromethyl)-3-pyridyl]-2-[2-fluoro-4-[2-[[1-(2-methoxyethyl)pyrazol-4-yl]amino]pyrimidin-5-yl]phenyl]acetamide]
COCCn1cc(Nc2ncc(-c3ccc(CC(=O)Nc4cncc(C(F)(F)F)c4)c(F)c3)cn2)cn1 [Compound P-0267, 2-[2-fluoro-4-[2-[[1-(2-methoxyethyl)pyrazol-4-yl]amino]pyrimidin-5-yl]phenyl]-N-[5-(trifluoromethyl)-3-pyridyl]acetamide]
COCCn1cc(Nc2ncc(-c3ccc(CC(=O)Nc4ccc(C(F)(F)F)nc4)c(F)c3)cn2)cn1 [Compound P-0268, 2-[2-fluoro-4-[2-[[1-(2-methoxyethyl)pyrazol-4-yl]amino]pyrimidin-5-yl]phenyl]-N-[6-(trifluoromethyl)-3-pyridyl]acetamide]
COCCn1cc(Nc2ncc(-c3ccc(CC(=O)Nc4ccc(C(F)(F)F)cn4)c(F)c3)cn2)cn1 [Compound P-0269, 2-[2-fluoro-4-[2-[[1-(2-methoxyethyl)pyrazol-4-yl]amino]pyrimidin-5-yl]phenyl]-N-[5-(trifluoromethyl)-2-pyridyl]acetamide]
COCCn1cc(Nc2ncc(-c3ccc(CC(=O)Nc4cc(C(F)(F)F)ccn4)c(F)c3)cn2)cn1 [Compound P-0270, 2-[2-fluoro-4-[2-[[1-(2-methoxyethyl)pyrazol-4-yl]amino]pyrimidin-5-yl]phenyl]-N-[4-(trifluoromethyl)-2-pyridyl]acetamide]
COCCn1cc(Nc2ncc(-c3ccc(CC(=O)Nc4cnc(OC)c(C(F)(F)F)c4)cc3)cn2)cn1 [Compound P-0271, 2-[4-[2-[[1-(2-methoxyethyl)pyrazol-4-yl]amino]pyrimidin-5-yl]phenyl]-N-[6-methoxy-5-(trifluoromethyl)-3-pyridyl]acetamide]
COCCn1cc(Nc2ncc(-c3ccc(CC(=O)Nc4ccc(C(F)(F)F)nc4)cc3)cn2)cn1 [Compound P-0273, 2-[4-[2-[[1-(2-methoxyethyl)pyrazol-4-yl]amino]pyrimidin-5-yl]phenyl]-N-[6-(trifluoromethyl)-3-pyridyl]acetamide]
COCCn1cc(Nc2ncc(-c3ccc(CC(=O)Nc4ccc(C(F)(F)F)cn4)cc3)cn2)cn1 [Compound P-0274, 2-[4-[2-[[1-(2-methoxyethyl)pyrazol-4-yl]amino]pyrimidin-5-yl]phenyl]-N-[5-(trifluoromethyl)-2-pyridyl]acetamide]
